According to patent publication US20200270309A1, “MALEIMIDE GROUP-MODIFIED ANGIOGENESIS INHIBITOR HM-1 AND USE THEREOF” (NANJING ANJI BIOLOGICAL TECHNOLOGY CO., LTD, priority 2017, published 2020):
Peptide text beside a SMILES is read from it. * marks the point of attachment. X46 = O=C1C=CC(=O)N1c1cccc(CCCCC(=O)*)c1; X61 = O=C1C=CC(=O)N1c1cccc(CCCC(=O)*)c1; X79 = O=C1C=CC(=O)N1c1cccc(CCC(=O)*)c1; X75 = O=C1C=CC(=O)N1c1cccc(CC(=O)*)c1

Experiments:
HUVECs = test: Transwell migration inhibition on HUVECs; type: cell-based, human; conditions: for Inhibition rate (%): HUVEC migration vs blank control; for Cell migration number (Mean ± SD): HUVECs, transwell, 24 h
[1] = system: IL-1β production by mouse peritoneal macrophages; test: IL-1β production by mouse peritoneal macrophages (ELISA); type: cell-based; conditions: for Inhibition rate: IL-1β production, vs model group; for IL-1β: mouse peritoneal macrophages, 48 h, ELISA
Summary of the method: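 Starch-elicited (6%, i.p.) mouse peritoneal macrophages, 2×10^6 cells/mL in RPMI 1640, adhered 3 h; non-adherent cells washed off. Polypeptides added at low, medium and high concentrations, Dex as positive control; cultured 48 h, supernatant IL-1β measured.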

[2] = system: collagen-induced arthritis; test: Mouse collagen-induced arthritis (CIA) animal model; type: in vivo; conditions: DBA/1 mice CIA model, dose 4.0 mg/kg, subcutaneous from day 30, n=10; for Clinical score: highest score 16
[3] = system: choroidal neovascularization; test: Choroidal neovascularization in rats (laser photocoagulation, FFA); type: in vivo; conditions: BN rats
Experimental: 6-8 weeks male BN rats were fully anesthetized by intraperitoneal injection of 846 compound anesthetic with a concentration of 0.5 mL/kg. Compound tropicamide eye drops were used once 5 min before laser photocoagulation to fully dilate the pupils of both eyes. The animals were fixed and subjected to krypton laser photocoagulation equidistantly around an optic disc with the aid of a −53.00D corneal contact lens at a distance of 2PD from the optic disc. A total of 8 photocoagulation spots were obtained. The laser wavelength was 647.1 nm, the power was 350 mW, and the diameter and time of the photocoagulation spots were 50 μm and 0.05 s respectively. Fundus photography was performed immediately after photocoagulation. FFA, histopathology and transmission electron microscopy were performed on the days 3, 7, 14, 21 and 28 after photocoagulation respectively.
Through fundus photography and FFA examination, it was confirmed that the fluorescein leakage of the photocoagulation spot reached its peak on day 21 after photocoagulation. At the same time, histopathological examination was carried out.
Rats with successful modeling were randomly grouped, with 5 rats in each group. The groups were marked as a negative control group and X1-X90 treatment groups respectively. The rats were injected with normal saline and X1-X90 (the doses of X1-X90 were each 0.05 μM) in the vitreous chamber once a day for 1 week. FFA examination was carried out 3 days, 7 days, 14 days and 28 days after administration.

[4] = system: retinal vascular endothelial nuclei; test: Neovascularization in a rat model of premature retinopathy; type: in vivo, rats; conditions: dose 0.05 μM in the vitreous chamber from day 7 of modeling for one week; counted on day 14; oxygen-induced neonatal rats
Experimental: Using a fluctuating oxygen-induced animal model, newborn rats born naturally on the same day (within 12 h) were randomly divide into three groups: an oxygen model group, an oxygen treatment group and a normal control group. The oxygen model was further divided into three sub-group model groups, and the sub-group model groups and the treatment group were all placed in a semi-closed oxygen chamber made of organic glass; medical oxygen was introduced into the chamber, and the concentration was adjusted to 80%±2% by an oxygen meter; nitrogen was introduced into the oxygen chamber after 24 h, and the oxygen concentration was adjusted to 10%±2% rapidly and maintained for 24 h. This was repeated to keep the oxygen concentration in the oxygen chamber alternating between 80% and 10% every 24 h, the oxygen concentration was maintained for 7 d, and then the rats were fed in the air. The oxygen concentration was monitored 8 times a day, and the ambient temperature in the chamber was controlled at 23° C.±2° C. Bedding was replaced, feed was added, and water and mother rats were replaced once. The normal control group was placed in the animal room feeding environment. […] The oxygen treatment group was divided into three subgroups. On day 7 of modeling, X1-[…], […]-[…] and […]-X90 were injected in the vitreous chamber respectively, and the oxygen model group and the control group were only given normal saline for one week. On day 14, after the rats were anesthetized by diethyl ether and killed, eyeballs were extracted and fixed in 40 g/L paraformaldehyde solution for 24 h. Gradient dehydration by alcohol was performed, and the eyeballs were processed by xylene to be transparent. After waxing, the eyeballs were sectioned continuously to a thickness of 4μm, and the periphery of the optic disc should be avoided as much as possible. The sections were parallel to the sagittal plane from cornea to the optic disc. Ten sections of each eyeball were randomly taken and stained with hematoxylin eosin, the number of vascular endothelial nuclei that broke through the inner limiting membrane of the retina (only the number of vascular endothelial nuclei closely related to the inner limiting membrane were counted) was counted, and statistics of the average number of cells per section per eyeball was performed. Results: In the control group, there were no vascular endothelial nuclei that broke through the inner limiting membrane of the retina and grew into vitreous body, or the vascular endothelial nuclei were occasionally found in only a few sections. In the model group, there were many vascular endothelial nuclei that broke through the inner limiting membrane of the retina, some appeared alone, and some appeared in clusters. At the same time, on some sections, these vascular endothelial nuclei were also found adjacent to deep retinal vessels, confirming that they originated from the retina rather than the vitreous body or other ocular tissues. In the treatment group, only a few vascular endothelial nuclei that broke through the inner limiting membrane of retina could be seen in the sections.

[5] = day 3 after administration, total light spot number was 297, 0.05 μM in the vitreous chamber once a day for 1 week
[6] = day 7 after administration, total light spot number was 186, 0.05 μM in the vitreous chamber once a day for 1 week
[7] = day 14 after administration, total light spot number was 137, 0.05 μM in the vitreous chamber once a day for 1 week
[8] = day 28 after administration, total light spot number was 69, 0.05 μM in the vitreous chamber once a day for 1 week

Structure (SMILES)	Inhibition rate (%) (HUVECs; dose 0.05 μM)	Inhibition rate (%) (HUVECs; dose 0.1 μM)	Inhibition rate (%) (HUVECs; dose 0.2 μM)	Inhibition rate ([1]; dose 0.05 μM) [%]	IL-1β ([1]; dose 0.05 μM) [pg/mL]	Inhibition rate ([1]; dose 0.1 μM) [%]	IL-1β ([1]; dose 0.1 μM) [pg/mL]	Inhibition rate ([1]; dose 0.2 μM) [%]	IL-1β ([1]; dose 0.2 μM) [pg/mL]	Joint swelling degree (mm) [2] [mm]	Left and right paw swelling degree (mm) [2] [mm]	Clinical score [2]	CNV Incidence (%) [3, 5] [%]	Leakage Light spot number [3, 5]	CNV Incidence (%) [3, 6] [%]	Leakage Light spot number [3, 6]	CNV Incidence (%) [3, 7] [%]	Leakage Light spot number [3, 7]	CNV Incidence (%) [3, 8] [%]	Leakage Light spot number [3, 8]	also measured
C[C@H](NC(=O)CNC(=O)[C@H](CCCNC(=N)N)NC(=O)Cc1cccc(N2C(=O)C=CC2=O)c1)C(=O)N[C@@H](CC(=O)O)C(=O)N[C@@H](CCCNC(=N)N)C(=O)N[C@@H](C)C(=O)NCC(=O)NCC(=O)NCC(=O)NCC(=O)N[C@@H](CCCNC(=N)N)C(=O)NCC(=O)N[C@@H](CC(=O)O)C(=O)O [X25] (X75-RGADRAGGGGRGD-OH)	48.06	52.24	58.00	20.57	747.54 ± 18.25	24.22	713.21 ± 19.17	29.89	659.86 ± 10.24	0.71 ± 0.18	0.74 ± 0.14	9.21 ± 1.33	51.85	154	47.31	88	43.07	59	44.93	31	Cell migration number (Mean ± SD) (HUVECs; dose 0.05 μM): 556.73 ± 40.91; Cell migration number (Mean ± SD) (HUVECs; dose 0.1 μM): 511.9 ± 68.58; Cell migration number (Mean ± SD) (HUVECs; dose 0.2 μM): 450.13 ± 52.7; Nuclei count (retinal vascular endothelial nuclei, average per section per eyeball) [4]: 8.923 ± 1.954
C[C@H](NC(=O)CNC(=O)[C@H](CCCNC(=N)N)NC(=O)CCc1cccc(N2C(=O)C=CC2=O)c1)C(=O)N[C@@H](CC(=O)O)C(=O)N[C@@H](CCCNC(=N)N)C(=O)N[C@@H](C)C(=O)NCC(=O)NCC(=O)NCC(=O)NCC(=O)N[C@@H](CCCNC(=N)N)C(=O)NCC(=O)N[C@@H](CC(=O)O)C(=O)O [X26] (X79-RGADRAGGGGRGD-OH)	46.81	48.98	53.86	18.26	769.33 ± 19.82	21.99	734.20 ± 13.89	29.51	663.38 ± 11.96	0.71 ± 0.14	0.84 ± 0.12	9.07 ± 1.32	55.22	164	49.46	92	45.26	62	43.48	30	Cell migration number (Mean ± SD) (HUVECs; dose 0.05 μM): 570.08 ± 49.26; Cell migration number (Mean ± SD) (HUVECs; dose 0.1 μM): 546.86 ± 60.43; Cell migration number (Mean ± SD) (HUVECs; dose 0.2 μM): 494.57 ± 48.88; Nuclei count (retinal vascular endothelial nuclei, average per section per eyeball) [4]: 8.343 ± 2.131
C[C@H](NC(=O)CNC(=O)[C@H](CCCNC(=N)N)NC(=O)CCCc1cccc(N2C(=O)C=CC2=O)c1)C(=O)N[C@@H](CC(=O)O)C(=O)N[C@@H](CCCNC(=N)N)C(=O)N[C@@H](C)C(=O)NCC(=O)NCC(=O)NCC(=O)NCC(=O)N[C@@H](CCCNC(=N)N)C(=O)NCC(=O)N[C@@H](CC(=O)O)C(=O)O [X27] (X61-RGADRAGGGGRGD-OH)	46.39	49.01	53.38	25.91	697.32 ± 17.18	30.97	649.68 ± 18.74	33.62	624.72 ± 14.38	0.78 ± 0.19	0.75 ± 0.13	8.75 ± 1.43	54.88	163	46.24	86	42.34	58	36.23	25	Cell migration number (Mean ± SD) (HUVECs; dose 0.05 μM): 574.65 ± 60.83; Cell migration number (Mean ± SD) (HUVECs; dose 0.1 μM): 546.51 ± 46.67; Cell migration number (Mean ± SD) (HUVECs; dose 0.2 μM): 499.65 ± 59.06; Nuclei count (retinal vascular endothelial nuclei, average per section per eyeball) [4]: 8.358 ± 1.328
C[C@H](NC(=O)CNC(=O)[C@H](CCCNC(=N)N)NC(=O)CCCCc1cccc(N2C(=O)C=CC2=O)c1)C(=O)N[C@@H](CC(=O)O)C(=O)N[C@@H](CCCNC(=N)N)C(=O)N[C@@H](C)C(=O)NCC(=O)NCC(=O)NCC(=O)NCC(=O)N[C@@H](CCCNC(=N)N)C(=O)NCC(=O)N[C@@H](CC(=O)O)C(=O)O [X28] (X46-RGADRAGGGGRGD-OH)	43.01	52.75	53.13	15.78	792.64 ± 11.74	31.90	640.89 ± 14.7	32.28	637.34 ± 10.85	0.72 ± 0.18	0.73 ± 0.18	8.83 ± 1.26	50.17	149	46.77	87	45.26	62	40.58	28	Nuclei count (retinal vascular endothelial nuclei, average per section per eyeball) [4]: 9.261 ± 3.879
